# Reference: patent US9840500B2, “Compounds as dual inhibitors of histone methyltransferases and DNA methyltransferases” (FUNDACIÓN PARA LA INVESTIGACIÓN MÉDICA APLICADA, priority 2014, dated 2017)
# pIC50: −log10 of the molar value. Read-outs that look alike come from different tables or passages of the source.
# What was measured:
# [1] = system: OCI-Ly10; assay: Cell proliferation assay, OCI-Ly10 (ABC-DLBCL); assay type: cell-based; details: Homo sapiens, 48 hours of treatment, Table 3
# Experimental: (§1) Cell proliferation was analyzed after 48 hours of in vitro treatment using the CellTiter 96 Aqueous One Solution Cell Proliferation Assay (Promega, Madison, Wis.). This is a colorimetric method for determining the number of viable cells in proliferation.
# (§2) For the assay, suspension cells were cultured by triplicate at a density of 1×10^6 cells/ml in 96-well plates (100.000 cells/well, 100 μl/well), except for OCILY-3 and OCILY-10 cell lines which were cultured at a density of 0.5×10^6 cells/ml (50.000 cells/well, 100 μl/well) and for HepG2, Hep3B and PLC/PRF/5 cell ines which were cultured at a density of 3000 cells/well, 100 μl/well). Adherent cells were obtained from 80-90% confluent flasks and 100 μl of cells were seeded at a density of 5000 cells/well in 96-well plates by triplicate. Before addition of the compounds, adherent cells were allowed to attach to the bottom of the wells for 12 hours. In all cases, only the 60 inner wells were used to avoid any border effects.
# (§3) After 48 hours of treatment, plates with suspension cells were centrifuged at 800 g for 10 minutes and medium was removed. The plates with adherent cells were flicked to remove medium. Then, cells were incubated with 100 ul/well of medium and 20 ul/well of CellTiter 96 Aqueous One Solution reagent. After 1-3 hours of incubation at 37° C., absorbance was measured at 490 nm in a 96-well plate reader. The background absorbance was measured in wells with only cell line medium and solution reagent. Data was calculated as a percentage of total absorbance of treated cell/absorbance of non treated cells.
# [2] = system: PLC/PRF/5; assay: Cell proliferation assay, PLC/PRF/5 (HCC); assay type: cell-based; details: Homo sapiens, 48 hours of treatment, Table 3
# Experimental: as §1, §2, §3
# [3] = system: OCI-Ly3; assay: Cell proliferation assay, OCI-Ly3 (ABC-DLBCL); assay type: cell-based; details: Homo sapiens, 48 hours of treatment, Table 3
# Experimental: as §1, §2, §3
# [4] = system: Hep3B; assay: Cell proliferation assay, Hep3B (HCC); assay type: cell-based; details: Homo sapiens, 48 hours of treatment, Table 3
# Experimental: as §1, §2, §3
# [5] = system: LAL-CUN-2; assay: Cell proliferation assay, LAL-CUN-2 (ALL); assay type: cell-based
# Experimental: as §1, §2, §3
# [6] = biological target: T1, DNMT1 (Homo sapiens, UniProt P26358); assay: DNMT1 enzyme activity assay (TR-FRET, EPIgeneous methyltransferase assay); assay type: biochemical
# Summary of the method: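 Human DNMT1, added at 1 nM, with 0.5% final DMSO; activity read by TR-FRET detection of the product SAH, where signal falls as SAH rises. The value is the 665/620 nm ratio, and IC50 comes from a 4-parameter inhibition fit.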
# Target sequence in this assay (P26358 whole entry): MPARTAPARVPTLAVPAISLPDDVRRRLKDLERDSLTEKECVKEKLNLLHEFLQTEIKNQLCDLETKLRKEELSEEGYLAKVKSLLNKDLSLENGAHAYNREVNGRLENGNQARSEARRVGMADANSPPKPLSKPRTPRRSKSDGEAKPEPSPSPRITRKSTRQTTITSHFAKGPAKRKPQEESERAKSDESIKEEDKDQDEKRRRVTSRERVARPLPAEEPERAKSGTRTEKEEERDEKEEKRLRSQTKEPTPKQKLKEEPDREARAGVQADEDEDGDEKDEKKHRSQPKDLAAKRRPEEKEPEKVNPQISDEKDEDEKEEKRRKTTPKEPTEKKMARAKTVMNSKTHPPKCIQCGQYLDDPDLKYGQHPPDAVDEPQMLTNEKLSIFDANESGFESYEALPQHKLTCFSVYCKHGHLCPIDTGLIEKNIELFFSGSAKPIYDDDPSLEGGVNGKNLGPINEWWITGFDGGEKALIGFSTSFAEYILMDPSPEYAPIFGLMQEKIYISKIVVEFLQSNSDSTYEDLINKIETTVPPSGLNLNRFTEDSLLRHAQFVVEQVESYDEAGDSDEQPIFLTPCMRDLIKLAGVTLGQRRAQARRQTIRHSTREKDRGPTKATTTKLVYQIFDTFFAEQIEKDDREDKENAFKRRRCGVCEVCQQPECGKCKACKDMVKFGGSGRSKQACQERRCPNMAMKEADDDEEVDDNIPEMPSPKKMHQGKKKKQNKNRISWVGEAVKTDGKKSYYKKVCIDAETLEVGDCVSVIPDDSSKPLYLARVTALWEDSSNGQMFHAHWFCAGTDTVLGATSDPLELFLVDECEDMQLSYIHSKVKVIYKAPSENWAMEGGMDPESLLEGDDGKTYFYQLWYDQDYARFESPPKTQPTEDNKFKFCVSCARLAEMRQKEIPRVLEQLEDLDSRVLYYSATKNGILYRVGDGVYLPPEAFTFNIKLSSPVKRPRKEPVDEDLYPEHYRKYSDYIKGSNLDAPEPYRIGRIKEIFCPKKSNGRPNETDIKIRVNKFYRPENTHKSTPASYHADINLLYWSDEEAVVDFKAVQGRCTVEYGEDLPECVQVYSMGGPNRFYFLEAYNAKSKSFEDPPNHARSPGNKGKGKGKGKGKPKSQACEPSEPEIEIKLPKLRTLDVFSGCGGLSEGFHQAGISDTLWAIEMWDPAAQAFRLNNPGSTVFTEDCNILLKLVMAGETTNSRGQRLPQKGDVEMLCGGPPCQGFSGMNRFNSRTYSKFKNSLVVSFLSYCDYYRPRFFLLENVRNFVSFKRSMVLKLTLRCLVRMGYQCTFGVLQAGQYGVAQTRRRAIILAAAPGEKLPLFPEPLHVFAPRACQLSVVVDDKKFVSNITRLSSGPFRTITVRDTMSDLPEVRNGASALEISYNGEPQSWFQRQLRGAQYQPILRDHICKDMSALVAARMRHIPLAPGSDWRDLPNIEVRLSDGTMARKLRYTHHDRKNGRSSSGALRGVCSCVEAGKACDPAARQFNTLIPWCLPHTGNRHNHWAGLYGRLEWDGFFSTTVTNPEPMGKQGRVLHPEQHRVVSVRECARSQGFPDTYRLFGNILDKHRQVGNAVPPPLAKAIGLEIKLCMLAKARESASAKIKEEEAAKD
# [7] = system: HepG2; assay: Cell proliferation assay, HepG2 (HCC); assay type: cell-based; details: Homo sapiens, 48 hours of treatment, Table 3
# Experimental: as §1, §2, §3
# [8] = system: CEMO-1; assay: Cell proliferation assay, CEMO-1 (ALL); assay type: cell-based, human
# Experimental: as §1, §2, §3
# [9] = biological target: T2, human G9a enzyme (Homo sapiens, UniProt Q96KQ7); assay: G9a enzyme activity assay (TR-FRET); assay type: biochemical
# T2 sequence (Q96KQ7 1-1210): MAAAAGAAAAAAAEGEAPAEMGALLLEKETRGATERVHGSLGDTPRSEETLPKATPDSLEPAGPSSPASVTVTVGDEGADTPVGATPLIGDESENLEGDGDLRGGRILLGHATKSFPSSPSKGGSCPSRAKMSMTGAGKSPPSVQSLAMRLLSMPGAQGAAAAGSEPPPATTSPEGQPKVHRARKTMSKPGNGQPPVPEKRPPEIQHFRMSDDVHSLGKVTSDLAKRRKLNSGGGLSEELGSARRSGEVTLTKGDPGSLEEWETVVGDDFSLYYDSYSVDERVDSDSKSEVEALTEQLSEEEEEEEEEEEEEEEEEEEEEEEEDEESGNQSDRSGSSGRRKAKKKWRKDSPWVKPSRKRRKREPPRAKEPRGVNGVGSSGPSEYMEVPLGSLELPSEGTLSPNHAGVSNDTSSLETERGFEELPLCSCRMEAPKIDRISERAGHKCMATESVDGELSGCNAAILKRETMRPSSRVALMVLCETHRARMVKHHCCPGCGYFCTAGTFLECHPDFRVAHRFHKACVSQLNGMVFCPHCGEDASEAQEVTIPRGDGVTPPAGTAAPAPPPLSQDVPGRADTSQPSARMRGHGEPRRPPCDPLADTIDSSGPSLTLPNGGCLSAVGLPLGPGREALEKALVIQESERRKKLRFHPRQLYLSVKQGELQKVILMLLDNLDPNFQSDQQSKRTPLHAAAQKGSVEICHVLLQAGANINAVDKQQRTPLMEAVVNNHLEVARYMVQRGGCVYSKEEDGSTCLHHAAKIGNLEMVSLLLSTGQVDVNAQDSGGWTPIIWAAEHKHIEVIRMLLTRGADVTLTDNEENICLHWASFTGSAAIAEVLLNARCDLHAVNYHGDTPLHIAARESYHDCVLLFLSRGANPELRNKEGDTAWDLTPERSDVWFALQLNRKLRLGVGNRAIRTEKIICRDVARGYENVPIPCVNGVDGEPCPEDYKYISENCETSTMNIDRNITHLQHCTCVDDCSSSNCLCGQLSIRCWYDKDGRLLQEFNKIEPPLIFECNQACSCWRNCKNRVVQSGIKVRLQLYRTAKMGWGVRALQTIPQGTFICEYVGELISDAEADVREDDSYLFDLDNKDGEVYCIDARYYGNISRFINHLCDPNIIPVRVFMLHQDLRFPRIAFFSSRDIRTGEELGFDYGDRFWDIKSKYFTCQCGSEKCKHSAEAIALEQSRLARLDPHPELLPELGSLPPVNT
# Summary of the method: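 Sf9-expressed human G9a (added as 1 nM solution), 0.5% DMSO final, with streptavidin-XL665 at 16 μM final and europium cryptate donor. After 1 h at room temperature, the 665/620 nm ratio was read against vehicle and no-enzyme controls. IC50 from a 4-parameter inhibition fit.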
# [10] = system: MV411; assay: Cell proliferation assay, MV411 / MV4-11 (AML); assay type: cell-based
# Experimental: as §1, §2, §3
# (§4) Compounds 3-04 and 3-07 were tested against different solid tumour and oncohematological cell lines using the cell proliferation protocol described above.
# [11] = system: JJN3; assay: Cell proliferation assay, JJN3 (MM); assay type: cell-based
# Experimental: as §1, §2, §3
# [12] = system: OCI-AML-2; assay: Cell proliferation assay, OCI-AML-2 (AML); assay type: cell-based
# Experimental: as §1, §2, §3, §4
# [13] = system: U266; assay: Cell proliferation assay, U266 (MM); assay type: cell-based
# Experimental: as §1, §2, §3
# [14] = biological target: T1, DNMT1; assay: DNMT1 inhibition reported in the literature; assay type: biochemical; details: read-out: IC50 against DNMT1
# Target sequence in this assay (P26358 whole entry, species assumed): as the sequence (P26358 whole entry) above
# [15] = system: BJ human fibroblasts; assay: iPSC reprogramming of BJ human fibroblasts with retroviral vectors (O:S); assay type: cell-based; details: compound concentration 200 nM
# [16] = system: BJ human fibroblasts; assay: iPSC reprogramming of BJ human fibroblasts with lentiviral vectors (O:S:K:M); assay type: cell-based; details: compound concentration 200 nM
# Description: The used reprogramming system consisted in four independent doxycycline inducible lentiviral vectors (FUW-Tet-O based vectors) coding for the human OCT4 (addgene, ref#20726), SOX2 (addgene, ref#20724), KLF4 (addgene, ref#20725) and cMYC (addgene, ref#20723) transcription factors (O:S:K:M) Vesicular Stomatitis Virus G (VSVG)-coated lentiviruses were generated in 293T cells as described previously (Tiscornia et al., Nat Protoc. 2006; 1(1):241-5.). Briefly, 293T cells (ATCC, CRL-3216) were transfected with FUW-TetO lentiviral vectors referred above along with packaging plasmids psPAX2 (addgene, ref#12260) and pMD2.G (addgene, ref#12259) under the same conditions as those disclosed by Tiscornia et al, supra. […]
# • Day 2: Second infection of BJ cells (same conditions that first infection). • Day 3: Replate BJ cells in 2×175 cm^2 culture flask in fresh FCM. • Day 4: Incubate 1×175 cm^2 flask with 0.2 μM or 0.1 μM of test compound and the other flask just with FCM. Compound concentrations were selected according to the determined GI50 in BJ human fibroblasts, in order to avoid cytotoxicity. […]
# Reprogramming efficiency was quantified four weeks after infection. Presence of ESC-like colonies was detected by alkaline phosphatase (AP) staining using Leukocyte Alkaline Phosphatase Kit (Sigma) according to the manufacturer's protocol.
# [17] = biological target: DNMT3A (Homo sapiens, UniProt Q9Y6K1); assay: DNMT3A inhibition reported in the literature; assay type: biochemical; details: read-out: IC50 against DNMT3A
# Chain of DNMT3A (Q9Y6K1 whole entry, looked up, species assumed): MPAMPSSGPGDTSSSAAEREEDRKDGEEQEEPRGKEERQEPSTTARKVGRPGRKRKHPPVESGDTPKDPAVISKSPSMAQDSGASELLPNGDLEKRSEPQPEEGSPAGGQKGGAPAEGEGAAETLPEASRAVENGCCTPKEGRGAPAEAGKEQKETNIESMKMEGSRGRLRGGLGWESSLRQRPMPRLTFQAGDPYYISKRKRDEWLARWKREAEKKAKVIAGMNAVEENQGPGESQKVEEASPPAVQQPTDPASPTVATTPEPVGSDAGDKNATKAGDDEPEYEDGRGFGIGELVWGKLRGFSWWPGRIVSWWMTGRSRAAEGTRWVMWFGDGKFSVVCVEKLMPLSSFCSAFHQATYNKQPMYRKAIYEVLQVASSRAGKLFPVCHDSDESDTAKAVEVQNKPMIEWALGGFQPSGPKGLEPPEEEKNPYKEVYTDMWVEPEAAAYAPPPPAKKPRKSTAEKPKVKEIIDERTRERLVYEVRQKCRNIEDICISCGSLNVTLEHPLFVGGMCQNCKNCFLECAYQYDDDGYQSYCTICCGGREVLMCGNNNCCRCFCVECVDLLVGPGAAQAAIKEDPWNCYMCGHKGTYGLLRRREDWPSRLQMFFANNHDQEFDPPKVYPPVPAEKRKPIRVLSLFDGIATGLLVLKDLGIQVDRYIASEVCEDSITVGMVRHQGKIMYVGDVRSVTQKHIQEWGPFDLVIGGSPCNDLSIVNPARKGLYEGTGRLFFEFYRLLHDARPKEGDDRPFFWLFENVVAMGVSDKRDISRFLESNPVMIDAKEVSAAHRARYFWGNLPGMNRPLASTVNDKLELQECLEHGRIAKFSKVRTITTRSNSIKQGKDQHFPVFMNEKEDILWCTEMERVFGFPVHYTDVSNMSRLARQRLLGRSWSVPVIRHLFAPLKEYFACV
# [18] = biological target: T1, DNMT1; details: reported in the literature (Vedadi 2011; Liu 2013); read-out: IC50 against DNMT1; cited from earlier work
# Target sequence in this assay (P26358 whole entry, species assumed): as the sequence (P26358 whole entry) above
# [19] = Homo sapiens, MV4-11, Table 5 comparison
# [20] = Homo sapiens, JJN-3, Table 5 comparison
# [21] = Homo sapiens, OCI-AML2, Table 5 comparison
# [22] = Homo sapiens, U-266, Table 5 comparison
# [23] = Homo sapiens, ALL, Table 5 comparison
Compound,"GI50 ([5]; ALL, Table 5 comparison)","GI50 [10, 19]","GI50 [11, 20]","GI50 [12, 21]","GI50 [13, 22]","GI50 [8, 23]",also measured
COc1cc2c(NC3CCN(C4CC4)CC3)cc(-c3ccc(C)o3)nc2cc1OCCCN1CCCC1 [Compound 3-20],,,,,,,"GI50 [1]: 0.1 to 1 µM; GI50 [2]: 0.1 to 1 µM; GI50 [3]: 0.1 to 1 µM; GI50 [4]: 0.1 to 1 µM; GI50 ([5]; 48 hours of treatment, Table 3): 1 to 10 µM; pIC50 [6]: 6.30 to 7.00; GI50 [7]: 0.1 to 1 µM; GI50 ([8]; Homo sapiens, 48 hours of treatment, Table 3): 0.1 to 1 µM; pIC50 [9]: > 7.00"
"Nc1ncn([C@H]2C[C@H](O)[C@@H](CO)O2)c(=O)n1 [Decitabine, reference compound]",≥ 10 µM,,,,,,"GI50 ([10]; Table 5 comparison): ≥ 10 µM; GI50 ([11]; Table 5 comparison): ≥ 10 µM; GI50 ([12]; Table 5 comparison): ≥ 10 µM; GI50 ([13]; Table 5 comparison): ≥ 10 µM; GI50 ([8]; ALL, Table 5 comparison): 0.1 to 1 µM"
"Nc1ncn([C@@H]2O[C@H](CO)[C@@H](O)[C@H]2O)c(=O)n1 [5-azacytidine, reference compound]",≥ 10 µM,1 to 10 µM,≥ 10 µM,≥ 10 µM,1 to 10 µM,1 to 10 µM,
"COc1cc2nc(N3CCCN(C)CC3)nc(NC3CCN(Cc4ccccc4)CC3)c2cc1OC [BIX01294, N-(1-benzyl-4-piperidyl)-6,7-dimethoxy-2-(4-methyl-1,4-diazepan-1-yl)quinazolin-4-amine]",1 to 10 µM,≥ 10 µM,≥ 10 µM,1 to 10 µM,≥ 10 µM,1 to 10 µM,"pIC50 [14]: < 4.00; Folding respect to untreated (reprogramming efficiency, AP+ colonies) [15]: 1.04; Folding respect to untreated (reprogramming efficiency, AP+ colonies) [16]: 1.29; pIC50 [17]: < 4.00"
"COc1cc2c(NC3CCN(C(C)C)CC3)nc(N3CCC(F)(F)CC3)nc2cc1OCCCN1CCCC1 [UNC0642, 2-(4,4-difluoro-1-piperidyl)-N-(1-isopropyl-4-piperidyl)-6-methoxy-7-(3-pyrrolidin-1-ylpropoxy)quinazolin-4-amine]",,,,,,,pIC50 [18]: < 4.30
"COc1cc2c(NC3CCN(C(C)C)CC3)nc(C3CCCCC3)nc2cc1OCCCN1CCCC1 [UNC0638, 2-cyclohexyl-N-(1-isopropyl-4-piperidyl)-6-methoxy-7-(3-pyrrolidin-1-ylpropoxy)quinazolin-4-amine, reference compound]",1 to 10 µM,≥ 10 µM,≥ 10 µM,1 to 10 µM,≥ 10 µM,1 to 10 µM,
